Results published in ChEMBL document CHEMBL1201862, “PubChem BioAssay data set” (2004).
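Grown in 96-well plates, cells were treated for 48 hours with each compound at five concentrations. Insufficient inhibition: endpoint recorded as highest concentration tested. GI50 is the concentration that inhibits growth by half.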 The source made the active and inactive calls. Cut-off read from the data, not from the text of the source: active = GI50 up to about 1.1 µM and inactive = higher.

What was measured:
Test in all cases: NCI tumour cell line growth inhibition, 48 h
COLO 205 = system: COLO 205
UO-31 = system: UO-31
HOP-62 = system: HOP-62
SNB-19 = system: SNB-19
NCI-H23 = system: NCI-H23
SK-MEL-28 = system: SK-MEL-28
HOP-92 = system: HOP-92
UACC-257 = system: UACC-257
IGROV-1 = system: IGROV-1
NCI-H460 = system: NCI-H460
SW-620 = system: SW-620
EKVX = system: EKVX
M14 = system: M14
TK-10 = system: TK-10
OVCAR-8 = system: OVCAR-8
RXF 393 = system: RXF 393

Measured: GI50

O=C1CSC(C(/N=N/c2ccccc2)=C2Nc3ccccc3N2)=N1
inactive: COLO 205 > 100 µM | UO-31 95.7 µM | HOP-62 23.7 µM | SNB-19 31.9 µM | NCI-H23 74.5 µM | SK-MEL-28 29.6 µM | HOP-92 18.5 µM | UACC-257 24.4 µM | IGROV-1 > 100 µM | NCI-H460 38.6 µM | SW-620 93.5 µM | EKVX 31.1 µM | M14 70.3 µM | TK-10 > 100 µM | OVCAR-8 39.1 µM

CN(C)c1ccc(-c2cc(O)c3ccccc3n2)cc1
inactive: COLO 205 > 100 µM | UO-31 > 100 µM | HOP-62 > 100 µM | RXF 393 > 100 µM | SNB-19 > 100 µM | NCI-H23 > 100 µM | SK-MEL-28 > 100 µM | UACC-257 > 100 µM | IGROV-1 > 100 µM | NCI-H460 > 100 µM | SW-620 > 100 µM | EKVX > 100 µM | M14 > 100 µM | TK-10 > 100 µM | OVCAR-8 > 100 µM

CC1=C(C(=O)NNS(=O)(=O)c2ccc(C)cc2)CC(C(=O)NNS(=O)(=O)c2ccc(C)cc2)=C(C)N1
inactive: COLO 205 > 100 µM | UO-31 > 100 µM | HOP-62 > 100 µM | RXF 393 92.7 µM | SNB-19 > 100 µM | NCI-H23 > 100 µM | SK-MEL-28 > 100 µM | UACC-257 > 100 µM | IGROV-1 > 100 µM | NCI-H460 > 100 µM | SW-620 > 100 µM | EKVX > 100 µM | M14 > 100 µM | TK-10 56.4 µM | OVCAR-8 > 100 µM

Cc1ccc(NC(=O)C(=O)C2C(=O)N(c3ccccc3)N=C2N)cc1C (stereo not drawn)
inactive: COLO 205 > 100 µM | UO-31 > 100 µM | HOP-62 > 100 µM | SNB-19 > 100 µM | NCI-H23 > 100 µM | SK-MEL-28 > 100 µM | HOP-92 > 100 µM | UACC-257 > 100 µM | IGROV-1 > 100 µM | SW-620 > 100 µM | EKVX > 100 µM | M14 > 100 µM | TK-10 > 100 µM | OVCAR-8 > 100 µM

Cc1ccccc1NC(=O)CC(=O)NNCC(=O)Nc1nnc(-c2ccccc2)s1
inactive: COLO 205 > 100 µM | UO-31 45 µM | HOP-62 42.9 µM | SNB-19 79.1 µM | NCI-H23 > 100 µM | SK-MEL-28 > 100 µM | UACC-257 > 100 µM | IGROV-1 > 100 µM | NCI-H460 48.2 µM | SW-620 87.7 µM | EKVX 49.7 µM | M14 57.1 µM | TK-10 42.7 µM | OVCAR-8 54.2 µM

O=CN/C=C\c1cc(O)ccc1O
inactive: COLO 205 14.2 µM | UO-31 13.8 µM | HOP-62 18.6 µM | SNB-19 > 100 µM | NCI-H23 15.8 µM | SK-MEL-28 42.2 µM | HOP-92 14.2 µM | UACC-257 11.7 µM | IGROV-1 > 40.1 µM | NCI-H460 10 µM | SW-620 12.6 µM | EKVX 15.5 µM | M14 13.5 µM | TK-10 > 46.2 µM | OVCAR-8 15.6 µM

O=C1[C@H]2C(c3ccccc3)=NN(C(=O)c3ccccc3)[C@H]2C(=O)N1c1ccccc1
inactive: COLO 205 > 100 µM | UO-31 > 100 µM | HOP-62 > 100 µM | RXF 393 > 100 µM | SNB-19 > 100 µM | NCI-H23 > 100 µM | SK-MEL-28 > 100 µM | UACC-257 > 100 µM | IGROV-1 > 100 µM | NCI-H460 > 100 µM | SW-620 > 100 µM | EKVX > 100 µM | M14 > 100 µM | TK-10 > 100 µM | OVCAR-8 > 100 µM
